Values of other authors in patent US11565004B2, “In vivo imaging of matrix metalloproteinases in lung disease” (The Trustees of Columbia University in the City of New York, priority 2016, dated 2023).

System: MMPs-1, -2, -3, -7, -9, -12, and -13

COc1ccc(S(=O)(=O)N(Cc2cccnc2)[C@@H](C(=O)NO)C(C)C)cc1 [CGS27023A]
affinities against MMPs: high affinities
